Like-named read-outs stand apart in the source and are kept apart here.

We go through seven compounds from US7238685B2, “Benzo-fused heterocycles as endothelin antagonists” (Actelion Pharmaceuticals Ltd., priority 2001, dated 2007).

Experiment [1] addresses T1, rat aortic rings (ETA receptors) (Rattus norvegicus, UniProt P26684).
T1 construct: from tissue; host or cells: thoracic aorta rings of adult Wistar rats, endothelium removed
T1 sequence (P26684 21-426): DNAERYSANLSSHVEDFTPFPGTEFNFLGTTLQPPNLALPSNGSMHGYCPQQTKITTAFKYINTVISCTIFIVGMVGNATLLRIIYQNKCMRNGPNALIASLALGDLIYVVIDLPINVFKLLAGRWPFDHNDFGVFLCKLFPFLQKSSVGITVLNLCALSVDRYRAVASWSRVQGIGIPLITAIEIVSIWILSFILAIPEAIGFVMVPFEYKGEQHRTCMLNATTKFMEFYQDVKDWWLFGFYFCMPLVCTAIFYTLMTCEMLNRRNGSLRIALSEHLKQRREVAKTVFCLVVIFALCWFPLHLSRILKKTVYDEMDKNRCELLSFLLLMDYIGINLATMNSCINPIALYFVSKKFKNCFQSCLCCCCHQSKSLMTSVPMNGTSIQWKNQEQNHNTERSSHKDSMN
In words: Inhibition of endothelin-1-induced contractions on isolated rat aortic rings.

Experiment [2] addresses T2, rat tracheal rings (ETB receptors) (Rattus norvegicus, UniProt P21451).
T2 construct: from tissue; host or cells: tracheal rings of adult Wistar rats, epithelium removed
T2 sequence (P21451 27-442): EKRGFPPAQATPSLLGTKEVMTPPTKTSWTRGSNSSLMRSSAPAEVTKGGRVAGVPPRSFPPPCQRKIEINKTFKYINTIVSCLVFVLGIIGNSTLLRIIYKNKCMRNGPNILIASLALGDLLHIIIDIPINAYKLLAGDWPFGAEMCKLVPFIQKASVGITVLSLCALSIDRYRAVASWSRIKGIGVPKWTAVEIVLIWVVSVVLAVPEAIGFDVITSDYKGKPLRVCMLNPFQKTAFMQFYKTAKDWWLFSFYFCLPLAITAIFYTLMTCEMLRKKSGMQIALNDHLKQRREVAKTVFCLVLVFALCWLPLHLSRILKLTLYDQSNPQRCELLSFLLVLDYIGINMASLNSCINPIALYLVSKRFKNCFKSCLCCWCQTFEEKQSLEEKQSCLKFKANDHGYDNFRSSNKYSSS
As to the kind of experiment: Inhibition of sarafotoxin S6c-induced contractions on isolated rat tracheal rings. The protocol:
2) Inhibition of Endothelin-induced Contractions on Isolated Rat Aortic Rings (ETA Receptors) and Rat Tracheal Rings (ETB Receptors):
The functional inhibitory potency of the endothelin antagonists was assessed by their inhibition of the contraction induced by endothelin-1 on rat aortic rings (ETA receptors) and of the contraction induced by sarafotoxin S6c on rat tracheal rings (ETB receptors). Adult Wistar rats were anesthetized and exsanguinated. The thoracic aorta or trachea were excised, dissected and cut in 3–5 mm rings. The endothelium/epithelium was removed by gentle rubbing of the intimal surface. Each ring was suspended in a 10 ml isolated organ bath filled with Krebs-Henseleit solution (in mM; NaCl 115, KCl 4.7, MgSO4 1.2, KH2PO4 1.5, NaHCO3 25, CaCl2 2.5, glucose 10) kept at 37° C. and gassed with 95% O2 and 5% CO2. The rings were connected to force transducers and isometric tension was recorded (EMKA Technologies SA, Paris, France). The rings were stretched to a resting tension of 3 g (aorta) or 2 g (trachea). […] The functional inhibitory potency of the test compound was assessed by calculating the concentration ratio, i.e. the shift to the right of the EC50 induced by different concentrations of test compound. EC50 is the concentration of endothelin needed to get a half-maximal contraction, pA2 is the negative logarithm of the antagonist concentration which induces a two-fold shift in the EC50 value.

Experiment [3] has as its target T3, human recombinant ETA receptors (Homo sapiens, UniProt P25101).
T3 construct: expressed in transfected cells; host or cells: CHO cells (microsomal membranes)
T3 sequence (P25101 21-427): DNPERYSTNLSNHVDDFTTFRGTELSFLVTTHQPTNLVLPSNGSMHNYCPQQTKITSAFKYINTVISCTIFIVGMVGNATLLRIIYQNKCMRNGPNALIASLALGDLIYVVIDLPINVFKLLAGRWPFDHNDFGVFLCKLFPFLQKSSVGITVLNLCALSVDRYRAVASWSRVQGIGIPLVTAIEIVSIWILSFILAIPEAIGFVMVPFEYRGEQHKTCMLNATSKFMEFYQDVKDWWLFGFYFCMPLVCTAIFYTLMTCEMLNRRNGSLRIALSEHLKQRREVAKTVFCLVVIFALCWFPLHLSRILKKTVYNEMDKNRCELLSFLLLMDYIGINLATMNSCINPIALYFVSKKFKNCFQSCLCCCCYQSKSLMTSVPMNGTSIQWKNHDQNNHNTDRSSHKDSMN
In words: Inhibition of endothelin binding to membranes from CHO cells carrying human ET receptors (ETA). As to conditions: read-out: IC50 ETA.

Experiment [4] concerns the target T4, human recombinant ETB receptors (Homo sapiens, UniProt P24530).
T4 construct: expressed in transfected cells; host or cells: CHO cells (microsomal membranes)
T4 sequence (P24530 27-442): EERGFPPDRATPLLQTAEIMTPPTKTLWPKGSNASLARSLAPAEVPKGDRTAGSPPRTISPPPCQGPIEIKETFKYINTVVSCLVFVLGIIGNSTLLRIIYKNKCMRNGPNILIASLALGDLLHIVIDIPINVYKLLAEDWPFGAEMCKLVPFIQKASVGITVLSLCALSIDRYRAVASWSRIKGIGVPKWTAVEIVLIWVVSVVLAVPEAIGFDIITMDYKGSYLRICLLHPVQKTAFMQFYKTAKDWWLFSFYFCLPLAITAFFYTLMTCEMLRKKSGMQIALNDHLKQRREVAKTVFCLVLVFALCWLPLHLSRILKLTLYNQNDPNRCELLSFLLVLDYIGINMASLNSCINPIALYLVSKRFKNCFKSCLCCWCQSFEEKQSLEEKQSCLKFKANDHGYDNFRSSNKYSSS
As to the kind of experiment: Inhibition of endothelin binding to membranes from CHO cells carrying human ET receptors (ETB). As to conditions: read-out: IC50 ETB.

Where [5] appears, read: read-out: pA2 (aortic rings) (converted).

Take `COc1cc(OC)nc(O[C@H](C(=O)O)[C@@]2(c3ccccc3)NCC(=O)N(Cc3c(F)cc(F)cc3F)c3ccccc32)n1` (racemic) [Example 48]: the Kb in experiment [1] (setting [5]) was 6.46 nM; in experiment [2], 525 nM.

In the case of `COc1cc(CN2C(=O)CN[C@](c3ccccc3)([C@H](Oc3nc(C)cc(C)n3)C(=O)O)c3ccccc32)cc(OC)c1` (racemic) [Example 51, (±)-(S*)-[(5S*)-1-(3,5-Dimethoxy-benzyl)-2-oxo-5-phenyl-2,3,4,5-tetra-hydro-1H-benzo[e][1,4]diazepin-5-yl]-(4,6-dimethyl-pyrimidin-2-yloxy)-acetic acid], the IC50 turned out to be 7 nM in experiment [3] and 26 nM in experiment [4]. Also, the Kb in experiment [1] (setting [5]) is 40.7 nM.

Take `Cc1cc(C)nc(O[C@H](C(=O)O)[C@@]2(c3ccccc3)NCC(=O)N(Cc3c(F)cc(F)cc3F)c3ccccc32)n1` (racemic) [Example 107, (±)-(S*)-(4,6-dimethyl-pyrimidin-2-yloxy)-[(5S*)-2-oxo-5-phenyl-1-(2,4,6-trifluoro-benzyl)-2,3,4,5-tetrahydro-1H-benzo[e][1,4]diazepin-5-yl]-acetic acid]: the IC50 in experiment [3] was 1 nM; in experiment [4], 42 nM. In addition, the Kb is 6.61 nM in experiment [1] and 661 nM in experiment [2].

Turning to `Cc1cc(C)nc(O[C@H](C(=O)O)[C@@]2(c3ccccc3)NCC(=O)N(Cc3c(Cl)cccc3Cl)c3ccccc32)n1` (racemic) [Example 115], the IC50 was 1 nM in experiment [3] and 3 nM in experiment [4]. Besides, the Kb is 2.82 nM in experiment [1] and 27.5 nM in experiment [2].

Consider `COc1cc(OC)nc(O[C@H](C(=O)O)[C@@]2(c3ccccc3)NCC(=O)N(C)c3ccc(Cl)cc32)n1` (racemic) [Example 166, (±)-(1S*)-((5S*)-7-Chloro-1-methyl-2-oxo-5-phenyl-2,3,4,5-tetrahydro-1H-benzo[e][1,4]diazepin-5-yl)-(4,6-dimethoxy-pyrimidin-2-yloxy)-acetic acid], for which the Kb in experiment [1] (setting [5]) is 105 nM.

Take `Cc1cc(C)nc(O[C@H](C(=O)O)[C@@]2(c3cccc(-c4ccccc4)c3)NCC(=O)N(Cc3c(F)cc(F)cc3F)c3ccccc32)n1` (racemic) [Example 211, (±)-(S*)-[(5S*)-5-biphenyl-3-yl-2-oxo-1-(2,4,6-trifluoro-benzyl)-2,3,4,5-tetrahydro-1H-benzo[e][1,4]di-azepin-5-yl]-(4,6-dimethyl-pyrimidin-2-yloxy)-acetic acid]: the IC50 came to 6 nM in experiment [3] and 62 nM in experiment [4]. In addition, the Kb was 0.912 nM in experiment [1] and 85.1 nM in experiment [2].

On to `COC(=O)[C@@H](c1ccccc1)N1C(=O)CN[C@](c2ccccc2)([C@H](Oc2nc(C)cc(C)n2)C(=O)O)c2ccccc21` (relative stereo) [Example 52, (±)-(S*)-(4,6-Dimethyl-pyrimidin-2-yloxy)-[(5S*)-1-((R/S)-methoxycarbonyl-phenyl-methyl)-2-oxo-5-phenyl-2,3,4,5-tetrahydro-1H-benzo[e][1,4]diazepin-5-yl]-acetic acid], for which the results for the IC50 in experiment [3] and in experiment [4] were 11 nM and 23 nM, respectively.

For orientation: IC50 means the concentration that gives 50% inhibition.
